Each block holds one compound with its values, some of them ahead of it.
Test system: 171881-019-R-J1-PDC tumor spheroids, viability
Experiment: Anticancer human tumor 171881-019-R-J1-PDC patient-derived invasive breast carcinoma cell line growth inhibition [GQUAD]
Conditions: spheroids with HUVEC and MSC; for IC50: curve of first compound; for viability, T/C: stronger effect = lower value
From the text: DNA G-quadruplex Stabilizer Agents in Combinations in Complex Spheroids
A high-throughput screen of multi-cell type tumor spheroids was designed to identify active combinations of DNA G-quadruplex stabilizer agents and targeted small molecules. Complex spheroids include a stromal component modeled by human endothelial cells (HUVEC) and fibroblasts modeled by human mesenchymal stem cells (MSCs). The concentration ranges selected for each drug and investigational agent were based upon clinically achievable concentrations if the clinical Cmax of the agent was known.
Compounds. The drugs and investigational agents: pidnarulex (CX-5461; NSC782164), APTO-253 (NSC789042), BRACO-19 (NSC847499), peposertib (NSC802822), ceralasertib (NSC780249), elimusertib (NSC800525), camonsertib (NSC841442), AZD-1390 (NSC803789), olaparib (NSC753686), talazoparib (NSC767125), ART-558 (NSC835418), sotorasib (NSC818433), MRTX-1133 (NSC836407), SN-38 (NSC673596), topotecan (NSC609699), etoposide (NSC141540), doxorubicin (NSC123127), gemcitabine (NSC613327), 5-fluorouracil (NSC19893), paclitaxel (NSC125973), vemurafenib (NSC761431), panobinostat (NSC761190), R-306465 (JNJ-16241199; NSC773264), adavosertib (NSC754352), TP-3654 (NSC805149), carboplatin (NSC241240), KSQ-4279 (NSC840948), and staurosporine (NSC755774) were obtained from the National Cancer Institute (NCI) Developmental Therapeutics Program Chemical Repository (34). The FDA-approved anticancer drug set is available from the NCI Developmental Therapeutics Program. […] The stock solutions were prepared in dimethyl sulfoxide (DMSO, Sigma-Aldrich, St. Louis, MO, cat. D2650) at 800-fold the tested concentration and stored at -70 degrees C prior to their use. All drugs and investigational agents were tested over a range starting from a high concentration at or near the clinical Cmax and decreasing in half-log increments. If the clinical Cmax for an agent had not been determined, the highest concentration tested was 10 microM.
2.3 Cell Culture. All cells were maintained in an incubator at 37 degrees C and 5% CO2 with 95% humidity. The PDC lines were cultured according to standard operating procedures established by the NCI PDMR. All PDCs were thawed and cultured in Matrigel-coated flasks prepared with a working solution of 1X Ham's F-12 nutrient mix, without supplementation (Invitrogen, cat. 11765054), 100 U/mL penicillin-streptomycin (Invitrogen, cat. 15140122), and 2.5% Matrigel (Corning Inc., cat. 354248) for the first three passages. The 857933-349-R-J2-PDC line was cultured in 6C/Colon 1B media, which includes advanced DMEM/F-12 (Thermo Fisher Scientific, cat. 12634028), 10 mM HEPES (Thermo Fisher Scientific, cat. 15630080), 1X GlutaMAX supplement (Thermo Fisher Scientific, cat. 35050061), 0.1 mg/mL primocin (InvivoGen, cat. ant-pm-2), 10% defined fetal bovine serum, heat inactivated (HyClone Laboratories Inc., cat. SH30070.03HI), 50% L-WRN conditioned media (ATCC, cat. CRL-3276), 1.25 mM N-Acetyl-L-cysteine (Sigma-Aldrich, cat. A9165), 10 mM nicotinamide (Sigma-Aldrich, cat. N0636), 1X B-27 supplement (Thermo Fisher Scientific, cat. 17504044), 1X N-2 supplement (Thermo Fisher Scientific, cat. 17502048), 10 microM Y-27632 dihydrochloride (Tocris Bioscience, cat. 1254), and 50 ng/mL human EGF recombinant protein (Thermo Fisher Scientific, cat. PHG0311). The 485176-168-R4-J1-PDC line was cultured in Panc media, which includes all 6C/Colon 1B media components plus 100 ng/mL human FGF-10 (Thermo Fisher Scientific, cat. 100-26), 500 nM SB-431542 (Selleckchem, cat. S1067), and gastrin (Tocris, cat. 3006).
[…]

[1] = second compound 0.0316 µM, first compound 0.0316 µM
[2] = second compound 0.0316 µM, first compound 0.316 µM
[3] = second compound 0.1 µM, first compound 0.0316 µM
[4] = second compound 0.1 µM, first compound 0.316 µM
[5] = second compound 0.316 µM, first compound 0.0316 µM
[6] = second compound 0.316 µM, first compound 0.316 µM
[7] = second compound 1 µM, first compound 0.0316 µM
[8] = second compound 1 µM, first compound 0.316 µM
[9] = second compound 3.16 µM, first compound 0.0316 µM
[10] = second compound 3.16 µM, first compound 0.316 µM
[11] = second compound 10 µM, first compound 0.0316 µM
[12] = second compound 10 µM, first compound 0.316 µM
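Further: spheroids exposed to compounds for 7 days.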
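Wherever viability, T/C is given: 100% = DMSO vehicle control viability.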

IC50 (second compound 0.0316 µM): 43.3 nM | IC50 (second compound 0.1 µM): 47.5 nM | IC50 (second compound 0.316 µM): 43.4 nM | IC50 (second compound 1 µM): 46 nM | IC50 (second compound 3.16 µM): 37.2 nM | IC50 (second compound 10 µM): 37.6 nM
SMILES: Cc1[nH]c2ccccc2c1CCNCc1ccc(/C=C/C(=O)NO)cc1 + Cc1cnc(CNC(=O)c2c(=O)c3ccc(N4CCCN(C)CC4)nc3n3c2sc2ccccc23)cn1
viability, T/C (second compound 0.0316 µM, first compound 0.000999 µM): 108% | viability, T/C (second compound 0.0316 µM, first compound 0.00316 µM): 89.9% | viability, T/C (second compound 0.0316 µM, first compound 0.00999 µM): 81.7% | viability, T/C [1]: 61.3% | viability, T/C (second compound 0.0316 µM, first compound 0.0999 µM): 26.1% | viability, T/C [2]: 0.61% | viability, T/C (second compound 0.1 µM, first compound 0.000999 µM): 89.1% | viability, T/C (second compound 0.1 µM, first compound 0.00316 µM): 75.4% | viability, T/C (second compound 0.1 µM, first compound 0.00999 µM): 69.1% | viability, T/C [3]: 66.9% | viability, T/C (second compound 0.1 µM, first compound 0.0999 µM): 24.9% | viability, T/C [4]: 0.91% | viability, T/C (second compound 0.316 µM, first compound 0.000999 µM): 75.3% | viability, T/C (second compound 0.316 µM, first compound 0.00316 µM): 71.1% | viability, T/C (second compound 0.316 µM, first compound 0.00999 µM): 71.2% | viability, T/C [5]: 58.9% | viability, T/C (second compound 0.316 µM, first compound 0.0999 µM): 26.6% | viability, T/C [6]: 0.83% | viability, T/C (second compound 1 µM, first compound 0.000999 µM): 71.9% | viability, T/C (second compound 1 µM, first compound 0.00316 µM): 61.2% | viability, T/C (second compound 1 µM, first compound 0.00999 µM): 64% | viability, T/C [7]: 62.9% | viability, T/C (second compound 1 µM, first compound 0.0999 µM): 23.4% | viability, T/C [8]: 0.22% | viability, T/C (second compound 3.16 µM, first compound 0.000999 µM): 60.9% | viability, T/C (second compound 3.16 µM, first compound 0.00316 µM): 57.4% | viability, T/C (second compound 3.16 µM, first compound 0.00999 µM): 67.8% | viability, T/C [9]: 55.9% | viability, T/C (second compound 3.16 µM, first compound 0.0999 µM): 12.2% | viability, T/C [10]: 0.93% | viability, T/C (second compound 10 µM, first compound 0.000999 µM): 57.4% | viability, T/C (second compound 10 µM, first compound 0.00316 µM): 61.3% | viability, T/C (second compound 10 µM, first compound 0.00999 µM): 57.1% | viability, T/C [11]: 58.1% | viability, T/C (second compound 10 µM, first compound 0.0999 µM): 3.88% | viability, T/C [12]: 0.37%

IC50 (second compound 0.0316 µM): 706 nM | IC50 (second compound 0.1 µM): 907 nM | IC50 (second compound 0.316 µM): 1060 nM | IC50 (second compound 1 µM): 1270 nM | IC50 (second compound 3.16 µM): 1360 nM | IC50 (second compound 10 µM): 1400 nM
SMILES: COc1cc(C2c3cc4c(cc3C(OC3OC5COC(C)OC5C(O)C3O)C3COC(=O)C23)OCO4)cc(OC)c1O (centres undefined) + Cc1cnc(CNC(=O)c2c(=O)c3ccc(N4CCCN(C)CC4)nc3n3c2sc2ccccc23)cn1
viability, T/C [1]: 94.5% | viability, T/C (second compound 0.0316 µM, first compound 0.1 µM): 79.3% | viability, T/C [2]: 63.4% | viability, T/C (second compound 0.0316 µM, first compound 1 µM): 42.5% | viability, T/C (second compound 0.0316 µM, first compound 3.16 µM): 31.4% | viability, T/C (second compound 0.0316 µM, first compound 10 µM): 17.4% | viability, T/C [3]: 83.7% | viability, T/C (second compound 0.1 µM, first compound 0.1 µM): 75.2% | viability, T/C [4]: 60.5% | viability, T/C (second compound 0.1 µM, first compound 1 µM): 52.3% | viability, T/C (second compound 0.1 µM, first compound 3.16 µM): 30.6% | viability, T/C (second compound 0.1 µM, first compound 10 µM): 16.7% | viability, T/C [5]: 69.9% | viability, T/C (second compound 0.316 µM, first compound 0.1 µM): 74.2% | viability, T/C [6]: 59.9% | viability, T/C (second compound 0.316 µM, first compound 1 µM): 49.5% | viability, T/C (second compound 0.316 µM, first compound 3.16 µM): 36.7% | viability, T/C (second compound 0.316 µM, first compound 10 µM): 18.1% | viability, T/C [7]: 65.4% | viability, T/C (second compound 1 µM, first compound 0.1 µM): 61% | viability, T/C [8]: 59.1% | viability, T/C (second compound 1 µM, first compound 1 µM): 53.3% | viability, T/C (second compound 1 µM, first compound 3.16 µM): 39.9% | viability, T/C (second compound 1 µM, first compound 10 µM): 19.3% | viability, T/C [9]: 60.3% | viability, T/C (second compound 3.16 µM, first compound 0.1 µM): 60.2% | viability, T/C [10]: 60% | viability, T/C (second compound 3.16 µM, first compound 1 µM): 53.3% | viability, T/C (second compound 3.16 µM, first compound 3.16 µM): 39.7% | viability, T/C (second compound 3.16 µM, first compound 10 µM): 20.9% | viability, T/C [11]: 58% | viability, T/C (second compound 10 µM, first compound 0.1 µM): 57.7% | viability, T/C [12]: 52.9% | viability, T/C (second compound 10 µM, first compound 1 µM): 55% | viability, T/C (second compound 10 µM, first compound 3.16 µM): 39% | viability, T/C (second compound 10 µM, first compound 10 µM): 21.1%
